Results taken from EP4215193A1, “METHOD FOR THE CONSERVATIVE TREATMENT OF ENDOMETRIAL POLYPS” (Kiselev, Vsevolod Ivanovich, priority 2020, dated 2022).

Assays:
[1] = Clinical comparison of efficacy of DIM + βCD complex and crystalline DIM taken orally; format: in vivo; conditions: equal dosages, all studied groups of patients
Text: Clinical studies have compared the efficacy of the water-soluble DIM + βCD complex and crystalline 3,3'-diindolylmethane in equal dosages when taken orally. […]

[2] = test system: pathological neoangiogenesis; conditions: subcutaneously, 5 mg / kg, daily; cited from earlier work

Row | Compound | clinical response [1] | inhibition of pathological neoangiogenesis [2] [%]
1 | 3,3'-diindolylmethane [Crystal DIM] | absence of such | –
2 | c1ccc2c(Cc3c[nH]c4ccccc34)c[nH]c2c1 [DIM, 3,3'-diindolylmethane] | – | 74
